Results: article PMC10376691, “Inhibition of Acetylcholinesterase and Amyloid-β Aggregation by Piceatannol and Analogs: Assessing In Vitro and In Vivo Impact on a Murine Model of Scopolamine-Induced Memory Impairment” (Antioxidants, 2023)
Entries after “also recorded” stand apart in the source; their conditions may differ.

Legend:
[1] = DPPH radical scavenging activity; conditions: 120 μM DPPH in methanol, 37 °C, 20 min
Experimental: DPPH radical scavenging activity was assayed following a previous report, with some modifications. […] DMSO was used instead of a sample solution in the blank group. […] The scavenging activity of the DPPH radical (%) was calculated with the following equation: (△A515blank − △A515sample) ÷ △A515blank × 100%. The IC50 of the DPPH radical scavenging activity of PIC and its analogs or that of Trolox was calculated from each linear equation by three test concentrations and their radical scavenging activities.

[2] = target: T1, recombinant human AChE (Homo sapiens, UniProt P22303); test: AChE inhibitory activity in vitro (acetylthiocholine/DTNB); type: biochemical; conditions: calculated from 100, 200, 500 μM; read-out: IC50 of the anti-AChE activity
T1 construct: purchased R&D Systems Inc. (Minneapolis, MN, USA)
Experimental: Commercially synthesized acetylthiocholine iodide was hydrolyzed using AChE to release thiocholine, which was coupled with DTNB to generate the yellowish 5-thio-2-nitrobenzoate for in vitro AChE activity assays. For the AChE inhibitory activity assay, each analog was dissolved in the DMSO, and final concentrations of 100, 200, and 500 μM were used for comparisons. An equal volume of DMSO instead of the sample solution was used in the blank group and expressed as 100% AChE activity. […] AChE inhibition (%) was calculated as follows: [(A405blank − A405sample)/(A405blank)] × 100%.

[3] = target: T2, Aβ peptide (1–42) (Homo sapiens, UniProt P05067); test: biochemical; conditions: 10 μM Aβ working solution, ThT, 37 °C, 24 h; read-out: IC50 of the anti-Aβ peptide (1–42) aggregation
T2 construct: The Aβ peptide (1–42) was synthesized and purchased from Kelowna International Scientific Inc; purchased Kelowna International Scientific Inc. (New Taipei, Taiwan); host or cells: chemical synthesis
Experimental: To prepare the 10 μM Aβ peptide working solution, commercial Aβ peptide was first weighted and dissolved in HFIP to 1 mM. Next, the solvent was evaporated in a hood and then re-dissolved using 100 μL of 60 mM NaOH. It was then diluted to 10 μM working solutions with 50 mM phosphate buffer (pH 7.4, containing 150 mM sodium chloride and 1 mM EDTA), following previous reports. […] DMSO instead of the sample solution was used as the control. The 50 mM phosphate buffer was used instead of the Aβ working solution as the sample blank. […] The IC50 of the inhibition against the Aβ aggregation of PIC and its analogs was calculated from each linear equation using three test concentrations and their inhibition capacities.

[4] = system: SH-SY5Y cells; test: Neuroprotection against Aβ peptide (25–35)-induced cell deaths (MTT); type: cell-based, human; conditions: pre-treatment 1, 2 and 10 μM for 24 h, then 40 μg/mL Aβ (25–35) 24 h; vs control p < 0.05
Experimental: The human SH-SY5Y neuroblastoma cell lines (CRL-2266, Lot No. 58979771) were purchased from American Type Culture Collection (Manassas, VA, USA) and used as models to investigate PIC and its analogs for neuroprotective activities against Aβ-induced cell deaths and the stimulation of neurite outgrowths. The SH-SY5Y cells were grown in DMEM/F-12 medium supplemented with 10% FBS at 37 °C under a humidified atmosphere and 5% CO2 [41]. […]. The SH-SY5Y cells (10,000 cells/well) were seeded and cultured in a DMEM/F-12 medium containing 10% FBS for 24 h at 37 °C under a humidified atmosphere and 5% CO2. […] The medium was then removed, and 40 μg/mL Aβ peptide (25–35) (dissolved in PBS) or an equal aliquot of PBS was added to the medium for another 24 h culture. The MTT was used to evaluate cell viability, and the absorbance at 570 nm was determined. The DMSO used instead of the sample solution was blank (recognized as 100%), and each treatment was expressed as relative cell viability (%). To study the stimulation of neurite outgrowth, the SH-SY5Y cells (5000 cells/well) were seeded on a 96-well plate pre-coated with poly-L-lysine and then cultured in the DMEM/F-12 medium containing 10% FBS overnight at 37 °C under a humidified atmosphere and 5% CO2. After being removed from the culture medium, each PIC, GNT, RHA, and isoRHA (at a final concentration of 10 μM in the 0.1%DMSO) or 0.1% DMSO (the control) was added to the DMEM/F-12 medium containing 10% FBS and refreshed every three days. On day 3 and day 6, each of the culture plates was photographed using an inverted microscope (ECLIPSE TS100, Nikon Instruments Inc., Tokyo, Japan). The culture medium was removed and washed with PBS, and the cultured cells in each well were fixed with 4% paraformaldehyde. To measure cell viability and quantify the neurite outgrowths of the treated SH-SY5Y in a 96-well plate, the neurite outgrowth staining kit (a two-color fluorescence assay kit) was used, following a previous report or the protocol in the manufacturer’s manual (publication number: MAN0007224), which included a cell membrane-stained fluorescent dye (orange-red fluorescence), a cell viability indicator (green fluorescence), and a reagent for background masking. The fluorescence ratios of Ex555nm/Em565nm and Ex495nm/Em515nm were determined for the neurite outgrowths and the cell viabilities, respectively. The value for the control was recognized as 100%, and each treatment was expressed relative to the control.

[5] = Neurite outgrowth and cell viability, two-color fluorescence assay kit; type: cell-based; conditions: human, SH-SY5Y neuroblastoma cells, 3-day or 6-day treatment, green fluorescence, read-out: cell viability relative to the control
Experimental: (§1) The SH-SY5Y cells were grown in DMEM/F-12 medium supplemented with 10% FBS at 37 °C under a humidified atmosphere and 5% CO2 [41]. […] The MTT was used to evaluate cell viability, and the absorbance at 570 nm was determined. The DMSO used instead of the sample solution was blank (recognized as 100%), and each treatment was expressed as relative cell viability (%). To study the stimulation of neurite outgrowth, the SH-SY5Y cells (5000 cells/well) were seeded on a 96-well plate pre-coated with poly-L-lysine and then cultured in the DMEM/F-12 medium containing 10% FBS overnight at 37 °C under a humidified atmosphere and 5% CO2. After being removed from the culture medium, each PIC, GNT, RHA, and isoRHA (at a final concentration of 10 μM in the 0.1%DMSO) or 0.1% DMSO (the control) was added to the DMEM/F-12 medium containing 10% FBS and refreshed every three days. On day 3 and day 6, each of the culture plates was photographed using an inverted microscope (ECLIPSE TS100, Nikon Instruments Inc., Tokyo, Japan). The culture medium was removed and washed with PBS, and the cultured cells in each well were fixed with 4% paraformaldehyde. To measure cell viability and quantify the neurite outgrowths of the treated SH-SY5Y in a 96-well plate, the neurite outgrowth staining kit (a two-color fluorescence assay kit) was used, following a previous report or the protocol in the manufacturer’s manual (publication number: MAN0007224), which included a cell membrane-stained fluorescent dye (orange-red fluorescence), a cell viability indicator (green fluorescence), and a reagent for background masking. […] The value for the control was recognized as 100%, and each treatment was expressed relative to the control.

[6] = system: SH-SY5Y cells; test: as above; type: cell-based; conditions: 10 μM
Experimental: as §1

[7] = read-out: Cmax of metabolite; after intravenous PIC 90 μmole/kg (21.98 mg/kg), SD rats; cited from earlier work
[8] = system: scopolamine-induced amnesiac ICR mice; conditions: pre-treatment 40 mg/kg; cited from earlier work
[9] = system: scopolamine-induced mice with cognitive impairment; conditions: one-month pre-treatment via cannula into the third ventricle, total 65 ng/month/head; cited from earlier work
[10] = cited from earlier work
[11] = system: early Alzheimer’s; conditions: 18-month phase-3 trial; cited from earlier work

T2 sequence (P05067 672-713): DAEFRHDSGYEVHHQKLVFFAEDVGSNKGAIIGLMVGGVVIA
T1 sequence (P22303 32-614): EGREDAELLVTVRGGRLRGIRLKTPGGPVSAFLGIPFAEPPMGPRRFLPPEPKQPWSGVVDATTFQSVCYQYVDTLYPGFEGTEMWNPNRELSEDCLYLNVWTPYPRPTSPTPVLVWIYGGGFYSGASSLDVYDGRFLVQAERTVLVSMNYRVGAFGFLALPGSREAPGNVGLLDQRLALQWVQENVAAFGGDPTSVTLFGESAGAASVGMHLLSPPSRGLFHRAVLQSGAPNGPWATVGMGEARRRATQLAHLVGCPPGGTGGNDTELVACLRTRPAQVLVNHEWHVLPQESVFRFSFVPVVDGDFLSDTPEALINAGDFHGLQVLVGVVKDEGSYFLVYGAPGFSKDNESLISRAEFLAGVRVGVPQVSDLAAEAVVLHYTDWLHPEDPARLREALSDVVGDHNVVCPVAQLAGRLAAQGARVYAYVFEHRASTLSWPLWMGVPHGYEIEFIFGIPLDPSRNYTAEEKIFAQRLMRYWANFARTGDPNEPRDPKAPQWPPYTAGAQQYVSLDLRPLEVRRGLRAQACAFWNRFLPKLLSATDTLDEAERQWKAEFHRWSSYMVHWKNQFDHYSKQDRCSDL

Molecule: COc1cc(C=Cc2cc(O)cc(O)c2)ccc1O [isoRHA, 3,5,4′-trihydroxy-3′-methoxystilbene]
- IC50 [1]: 72.9 µM
- IC50 [2]: 322 µM
- IC50 [3]: 1.94 µM
- neuroprotection: cell viability against Aβ peptide (25–35)-induced cell deaths [4]: elevated cell viabilities
- viability at 10 µM [5]: 80%
- stimulation of neurite outgrowths ([6]; 3-day or 6-day treatment, orange-red fluorescence, vs control): stimulate neurite outgrowths; also recorded: showed stimulated activities toward neurite outgrowths; also recorded: showed stimulatory activity in neurite outgrowths
- total neurite lengths in living SH-SY5Y cells, fold of the control ([6]; calculated): 1.375 fold
- Cmax [7]: 5.08 ± 0.31 µM

Molecule: Oc1ccc([C@H]2c3c(O)cc(O)cc3[C@H]3c4c(cc(O)cc4[C@@H]2c2cc(/C=C/c4cc(O)cc5c4[C@H](c4cc(O)cc(O)c4)[C@@H](c4ccc(O)cc4)O5)ccc2O)O[C@@H]3c2ccc(O)cc2)cc1 [vitisin A]
- learning and memory functions via the passive avoidance test [8]: improved learning and memory functions

Molecule: Oc1ccc([C@H]2c3c(O)cc(O)cc3[C@H]3c4c(cc(O)cc4[C@@H]2O)O[C@@H]3c2ccc(O)cc2)cc1 [ampelopsin A]
- learning behavior, passive avoidance test and novel object recognition [9]: clear restoration of learning behavior

Molecule: OC[C@H]1O[C@@H](Oc2cc(/C=C/c3cc(O)cc(O)c3)ccc2O)[C@H](O)[C@@H](O)[C@@H]1O [piceatannol-3′-O-β-D-glucopyranoside]
- crossing of the BBB [10]: reported to cross the BBB

B1: lecanemab (antibody, chains of the INN, looked up, V domains shown)
VH: EVQLVESGGGLVQPGGSLRLSCSASGFTFSSFGMHWVRQAPGKGLEWVAYISSGSSTIYYGDTVKGRFTISRDNAKNSLFLQMSSLRAEDTAVYYCAREGGYYYGRSYYTMDYWGQGTTVTVSS
VL: DVVMTQSPLSLPVTPGAPASISCRSSQSIVHSNGNTYLEWYLQKPGQSPKLLIYKVSNRFSGVPDRFSGSGSGTDFTLRISRVEAEDVGIYYCFQGSHVPPTFGPGTKLEIK
- less decline in measures of cognition and function as compared to a placebo [11]: 25%
